Target: T1, WIZ protein (HiBit-WIZ fusion protein) (Homo sapiens, UniProt O95785+Q96SW2)
T1 construct: expressed in transfected cells
Experiment: Quantification of WIZ protein levels in HiBit tag fusion protein assay (WIZ HiBit assay in 293T cells)
Format: cell-based
Conditions: for Dmax at 25 µM / remaining activity at 25 µM: HEK-293T, 293T cells; for Dmax at 25 µM: 100 − Amax, read-out: % degradation of WIZ (100 − Amax); for remaining activity at 25 µM: DMSO-normalized, curve-fitted percentage of WIZ-HiBit remaining at 25 uM, read-out: WIZ Amax; for DC50: WIZ HiBit assay in 293T cells, 10-point, 5-fold dose response, highest concentration 25 μM, about 18 hours, read-out: WIZ AC50
Method: The HiBit system from Promega was used to develop high-throughput and quantitative assays to measure changes in WIZ protein levels in response to compounds. The HiBit tag was derived from a split Nanoluciferase and has the following protein sequence: […] (SEQ ID NO: 1). The complementary fragment of Nanoluciferase (known as LgBit, from Promega), was added to the HiBit tag to form an active Nanoluciferase enzyme whose activity can be precisely measured. In this way, the levels of a fusion protein with the HiBit tag can be quantified in cell lysates.
Lentiviral vectors, based on the Invitrogen™ pLenti6.2/V5 DEST backbone were constructed that places the HiBit tag upstream of WIZ and expressed the fusion protein from an HSVTK promotor.
To ensure moderate and consistent expression of the HiBit-WIZ fusion protein across all cells in the population, stable cell lines were constructed from cells harboring a single copy of the construct. Lentivirus packaged with the constructs were made using the ViraPower™ kit from Invitrogen™. 293T cells from ATCC (Catalog number: CRL-3216), were infected with the virus at low multiplicity of infection and selected by 5 μg/mL blasticidin in culture media for 2 weeks.
The levels of HiBit-WIZ tagged fusion proteins in compound-treated cell lines were measured as follows:
On day 1, cells were diluted to 1.0×10^6 cells/ml in normal growth medium. 20 μL of cell suspension were plated in each well of a solid white 384-well plate. Plates were incubated overnight in a 37° C. and 5% CO2 humidified tissue culture incubator.
On day 2, serial dilutions of compounds were made in 384-well plates. Compound plates were set up with DMSO in columns 1, 2, 23, 24, and 10-point compound dilution series in column 3-12 and column 13-22. 10 mM stock solution of compound were placed into column 3 or 13 and a 1:5 serial dilution was carried out until there was a 10-point dilution series per compound. 50 nL of diluted compounds were transferred into the plated cells by Echo® (Labcyte) acoustic transfer. The highest concentration of compound was 25 μM. Plates were incubated overnight (about 18 hours) in a 37° C. and 5% CO2 humidified tissue culture incubator.
On day 3, plates were removed from the incubator and allowed to equilibrate at room temperature for 60 minutes. HiBit substrate (Nano-Glo® HiBit Lytic Detection System, Promega Catalogue number: N3050) was added as described by the manufacturers protocols. Plates were incubated at room temperature for 30 minutes and luminescence was read using an EnVision® reader (PerkinElmer®). Data was analyzed and visualized using the Spotfire® software package.
WIZ Degradation Activity of Compounds (Table 1)
WIZ Amax reflects the DMSO-normalized, curve-fitted percentage of WIZ-HiBit remaining at 25 uM. It was calculated by normalizing […] controls to 100%, parametric curve fitting of the dose response data (10-point, 5-fold), followed by calculation of response at 25 uM using the fitted equation (nd=not determined).

T1 sequence (O95785 whole entry, the tested form may be a part): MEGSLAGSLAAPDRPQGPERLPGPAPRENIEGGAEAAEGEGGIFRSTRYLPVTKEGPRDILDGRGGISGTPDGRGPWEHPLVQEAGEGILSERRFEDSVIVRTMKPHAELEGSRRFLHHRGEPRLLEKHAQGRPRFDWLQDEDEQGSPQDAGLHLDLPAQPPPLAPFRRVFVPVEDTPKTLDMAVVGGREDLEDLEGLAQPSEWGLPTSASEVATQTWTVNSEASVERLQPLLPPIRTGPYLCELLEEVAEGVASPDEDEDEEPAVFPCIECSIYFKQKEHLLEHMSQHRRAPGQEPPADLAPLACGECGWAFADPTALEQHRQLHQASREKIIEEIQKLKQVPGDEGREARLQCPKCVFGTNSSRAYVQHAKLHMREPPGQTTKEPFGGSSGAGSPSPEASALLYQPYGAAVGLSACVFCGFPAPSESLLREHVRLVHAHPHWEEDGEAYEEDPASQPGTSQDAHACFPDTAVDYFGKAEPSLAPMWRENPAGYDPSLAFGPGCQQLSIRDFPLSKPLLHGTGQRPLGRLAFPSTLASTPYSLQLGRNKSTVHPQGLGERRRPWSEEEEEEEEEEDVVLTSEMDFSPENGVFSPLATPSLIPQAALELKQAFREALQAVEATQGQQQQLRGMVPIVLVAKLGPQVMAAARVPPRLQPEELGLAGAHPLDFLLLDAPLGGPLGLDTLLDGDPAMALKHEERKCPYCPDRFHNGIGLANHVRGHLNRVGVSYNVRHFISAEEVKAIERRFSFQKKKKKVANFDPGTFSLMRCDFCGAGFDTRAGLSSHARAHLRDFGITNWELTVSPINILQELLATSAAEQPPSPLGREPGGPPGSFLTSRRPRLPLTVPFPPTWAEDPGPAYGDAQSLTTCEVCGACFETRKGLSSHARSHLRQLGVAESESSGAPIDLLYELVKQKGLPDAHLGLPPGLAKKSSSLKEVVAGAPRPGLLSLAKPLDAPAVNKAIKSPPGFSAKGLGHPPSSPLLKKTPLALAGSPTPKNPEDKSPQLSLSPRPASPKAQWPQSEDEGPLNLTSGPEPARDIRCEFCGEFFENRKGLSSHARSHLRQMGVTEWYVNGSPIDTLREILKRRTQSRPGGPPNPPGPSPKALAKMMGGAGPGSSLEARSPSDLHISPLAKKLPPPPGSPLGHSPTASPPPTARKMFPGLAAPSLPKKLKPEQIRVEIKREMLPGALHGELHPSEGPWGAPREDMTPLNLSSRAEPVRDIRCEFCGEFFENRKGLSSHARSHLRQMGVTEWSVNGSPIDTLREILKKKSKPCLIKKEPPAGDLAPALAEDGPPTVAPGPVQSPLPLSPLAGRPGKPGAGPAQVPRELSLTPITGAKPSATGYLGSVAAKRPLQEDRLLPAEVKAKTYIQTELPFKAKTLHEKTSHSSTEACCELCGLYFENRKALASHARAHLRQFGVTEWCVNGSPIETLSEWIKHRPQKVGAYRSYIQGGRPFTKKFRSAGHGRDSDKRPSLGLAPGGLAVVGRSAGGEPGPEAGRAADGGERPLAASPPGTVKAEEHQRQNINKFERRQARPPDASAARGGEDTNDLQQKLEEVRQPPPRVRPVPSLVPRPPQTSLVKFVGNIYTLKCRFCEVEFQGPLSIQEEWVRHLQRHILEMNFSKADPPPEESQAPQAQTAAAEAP
T1 sequence (Q96SW2 whole entry, the tested form may be a part): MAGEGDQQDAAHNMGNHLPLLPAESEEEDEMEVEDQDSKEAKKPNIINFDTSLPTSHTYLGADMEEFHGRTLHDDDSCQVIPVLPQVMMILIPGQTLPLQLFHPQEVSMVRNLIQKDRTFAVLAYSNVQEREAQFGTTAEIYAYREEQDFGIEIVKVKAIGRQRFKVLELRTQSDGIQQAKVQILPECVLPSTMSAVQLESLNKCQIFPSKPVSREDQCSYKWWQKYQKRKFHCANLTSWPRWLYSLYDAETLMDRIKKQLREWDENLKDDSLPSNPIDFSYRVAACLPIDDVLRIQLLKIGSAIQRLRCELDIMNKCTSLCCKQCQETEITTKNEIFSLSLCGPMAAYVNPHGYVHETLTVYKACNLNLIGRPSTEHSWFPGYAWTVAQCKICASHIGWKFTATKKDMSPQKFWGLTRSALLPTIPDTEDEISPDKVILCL
T1 sequence (Q16531 whole entry partner, the tested form may be a part): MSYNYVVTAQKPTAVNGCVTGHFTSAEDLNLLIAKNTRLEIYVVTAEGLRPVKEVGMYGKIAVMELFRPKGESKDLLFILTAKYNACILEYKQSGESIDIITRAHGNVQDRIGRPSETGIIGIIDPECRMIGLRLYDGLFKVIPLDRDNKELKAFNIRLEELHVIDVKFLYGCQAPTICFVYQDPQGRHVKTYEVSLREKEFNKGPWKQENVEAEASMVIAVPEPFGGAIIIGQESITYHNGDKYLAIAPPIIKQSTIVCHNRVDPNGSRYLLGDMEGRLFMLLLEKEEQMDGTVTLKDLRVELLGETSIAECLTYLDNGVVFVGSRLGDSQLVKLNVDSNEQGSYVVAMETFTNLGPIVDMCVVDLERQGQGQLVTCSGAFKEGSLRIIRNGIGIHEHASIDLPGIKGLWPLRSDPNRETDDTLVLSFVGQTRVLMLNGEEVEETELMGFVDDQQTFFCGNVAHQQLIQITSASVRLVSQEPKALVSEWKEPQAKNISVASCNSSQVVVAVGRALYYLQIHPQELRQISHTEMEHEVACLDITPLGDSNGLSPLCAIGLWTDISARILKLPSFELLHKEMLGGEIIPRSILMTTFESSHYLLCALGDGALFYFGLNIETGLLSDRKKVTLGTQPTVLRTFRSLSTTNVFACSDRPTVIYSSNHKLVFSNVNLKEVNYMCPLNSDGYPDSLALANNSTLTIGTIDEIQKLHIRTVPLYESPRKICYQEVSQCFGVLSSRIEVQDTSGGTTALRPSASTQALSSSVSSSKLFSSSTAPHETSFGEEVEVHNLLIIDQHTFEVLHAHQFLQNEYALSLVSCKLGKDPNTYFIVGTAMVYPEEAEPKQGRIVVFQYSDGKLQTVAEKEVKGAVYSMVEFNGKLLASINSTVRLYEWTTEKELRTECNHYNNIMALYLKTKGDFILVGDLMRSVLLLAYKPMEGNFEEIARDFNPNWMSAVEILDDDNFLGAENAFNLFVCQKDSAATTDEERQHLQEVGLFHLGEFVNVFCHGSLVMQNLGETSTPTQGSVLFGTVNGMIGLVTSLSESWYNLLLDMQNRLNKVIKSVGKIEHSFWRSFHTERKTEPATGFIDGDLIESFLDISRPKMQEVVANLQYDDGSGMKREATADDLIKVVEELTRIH

| Compound | Dmax at 25 µM [%] | remaining activity at 25 µM [%] | DC50 [nM] |
| --- | --- | --- | --- |
| COc1cccc(CN2CCC(Cc3ccn4ncc(N5CCC(=O)NC5=O)c4c3)CC2)c1 [Example 40, 1-(5-((1-(3-methoxybenzyl)piperidin-4-yl)methyl)pyrazolo[1,5-a]pyridin-3-yl)dihydropyrimidine-2,4(1H,3H)-dione] | 70 | 30 | 52 |
| Cc1ccccc1CN1CCC(Cc2ccn3ncc(N4CCC(=O)NC4=O)c3c2)CC1 [Example 41, 1-(5-((1-(2-methylbenzyl)piperidin-4-yl)methyl)pyrazolo[1,5-a]pyridin-3-yl)dihydropyrimidine-2,4(1H,3H)-dione] | 70 | 30 | 27 |
| Cc1c(F)cccc1CN1CCC(Cc2ccn3ncc(N4CCC(=O)NC4=O)c3c2)CC1 [Example 42, 1-(5-((1-(3-fluoro-2-methylbenzyl)piperidin-4-yl)methyl)pyrazolo[1,5-a]pyridin-3-yl)dihydropyrimidine-2,4(1H,3H)-dione] | 70 | 30 | 26 |
| O=C1CCN(c2cnn3ccc(CC4CCN(CC(F)F)CC4)cc23)C(=O)N1 [Example 43, 1-(5-((1-(2,2-difluoroethyl)piperidin-4-yl)methyl)pyrazolo[1,5-a]pyridin-3-yl)dihydropyrimidine-2,4(1H,3H)-dione] | 70 | 30 | 34 |
| O=C1CCN(c2cnn3ccc(CC4CCN(Cc5cc(F)cc(F)c5)CC4)cc23)C(=O)N1 [Example 44, 1-(5-((1-(3,5-difluorobenzyl)piperidin-4-yl)methyl)pyrazolo[1,5-a]pyridin-3-yl)dihydropyrimidine-2,4(1H,3H)-dione] | 70 | 30 | 43 |
| O=C1CCN(c2cnn3ccc(CC4CCN(Cc5ccc(F)c(F)c5)CC4)cc23)C(=O)N1 [Example 45, 1-(5-((1-(3,4-difluorobenzyl)piperidin-4-yl)methyl)pyrazolo[1,5-a]pyridin-3-yl)dihydropyrimidine-2,4(1H,3H)-dione] | 70 | 30 | 23 |
| Cc1ccc(CN2CCC(Cc3ccn4ncc(N5CCC(=O)NC5=O)c4c3)CC2)cn1 [Example 46, 1-(5-((1-((6-methylpyridin-3-yl)methyl)piperidin-4-yl)methyl)pyrazolo[1,5-a]pyridin-3-yl)dihydropyrimidine-2,4(1H,3H)-dione] | 69 | 31 | 58 |
| Cc1ccc(CN2CCC(Cc3ccn4ncc(N5CCC(=O)NC5=O)c4c3)CC2)cc1 [Example 47, 1-(5-((1-(4-methylbenzyl)piperidin-4-yl)methyl)pyrazolo[1,5-a]pyridin-3-yl)dihydropyrimidine-2,4(1H,3H)-dione] | 69 | 31 | 157 |
| CC(c1cccc(F)c1)N1CCC(Cc2ccn3ncc(N4CCC(=O)NC4=O)c3c2)CC1 (stereo not drawn) [Example 48, 1-(5-((1-(1-(3-fluorophenyl)ethyl)piperidin-4-yl)methyl)pyrazolo[1,5-a]pyridin-3-yl)dihydropyrimidine-2,4(1H,3H)-dione] | 68 | 32 | 61 |
| CN1CCC(Cc2ccn3ncc(N4CCC(=O)NC4=O)c3c2)CC1 [Example 49, 1-(5-((1-methylpiperidin-4-yl)methyl)pyrazolo[1,5-a]pyridin-3-yl)dihydropyrimidine-2,4(1H,3H)-dione] | 66 | 34 | 2790 |
| O=C1CCN(c2cnn3ccc(CC4CCN(Cc5ccc(F)cc5F)CC4)cc23)C(=O)N1 [Example 50, 1-(5-((1-(2,4-difluorobenzyl)piperidin-4-yl)methyl)pyrazolo[1,5-a]pyridin-3-yl)dihydropyrimidine-2,4(1H,3H)-dione] | 66 | 34 | 113 |
| O=C1CCN(c2cnn3ccc(CC4CCN(Cc5cc(F)cc(C(F)(F)F)c5)CC4)cc23)C(=O)N1 [Example 51, 1-(5-((1-(3-fluoro-5-(trifluoromethyl)benzyl)piperidin-4-yl)methyl)pyrazolo[1,5-a]pyridin-3-yl)dihydropyrimidine-2,4(1H,3H)-dione] | 66 | 34 | 39 |
| O=C1CCN(c2cnn3ccc(CC4CCN(CC(=O)N5CCCCC5)CC4)cc23)C(=O)N1 [Example 52, 1-(5-((1-(2-oxo-2-(piperidin-1-yl)ethyl)piperidin-4-yl)methyl)pyrazolo[1,5-a]pyridin-3-yl)dihydropyrimidine-2,4(1H,3H)-dione] | 59 | 41 | 987 |
| O=C1CCN(c2cnn3ccc(CC4CCN(Cc5cccc(F)c5F)CC4)cc23)C(=O)N1 [Example 53, 1-(5-((1-(2,3-difluorobenzyl)piperidin-4-yl)methyl)pyrazolo[1,5-a]pyridin-3-yl)dihydropyrimidine-2,4(1H,3H)-dione] | 65 | 35 | 37 |
| O=C1CCN(c2cnn3ccc(CC4CCN(Cc5ccc(C(F)(F)F)nc5)CC4)cc23)C(=O)N1 [Example 54, 1-(5-((1-((6-(trifluoromethyl)pyridin-3-yl)methyl)piperidin-4-yl)methyl)pyrazolo[1,5-a]pyridin-3-yl)dihydropyrimidine-2,4(1H,3H)-dione] | 64 | 36 | 44 |
| O=C1CCN(c2cnn3ccc(CC4CCN(CC5(C(F)(F)F)CC5)CC4)cc23)C(=O)N1 [Example 55, 1-(5-((1-((1-(trifluoromethyl)cyclopropyl)methyl)piperidin-4-yl)methyl)pyrazolo[1,5-a]pyridin-3-yl)dihydropyrimidine-2,4(1H,3H)-dione] | 64 | 36 | 103 |
| O=C1CCN(c2cnn3ccc(CC4CCN(Cc5ccc(OC(F)(F)F)cc5)CC4)cc23)C(=O)N1 [Example 56, 1-(5-((1-(4-(trifluoromethoxy)benzyl)piperidin-4-yl)methyl)pyrazolo[1,5-a]pyridin-3-yl)dihydropyrimidine-2,4(1H,3H)-dione] | 63 | 37 | 204 |
| O=C1CCN(c2cnn3ccc(CC4CCN(Cc5ccc(C(F)(F)F)cc5)CC4)cc23)C(=O)N1 [Example 57, 1-(5-((1-(4-(trifluoromethyl)benzyl)piperidin-4-yl)methyl)pyrazolo[1,5-a]pyridin-3-yl)dihydropyrimidine-2,4(1H,3H)-dione] | 63 | 37 | 107 |
| Cc1ccc(F)cc1CN1CCC(Cc2ccn3ncc(N4CCC(=O)NC4=O)c3c2)CC1 [Example 58, 1-(5-((1-(5-fluoro-2-methylbenzyl)piperidin-4-yl)methyl)pyrazolo[1,5-a]pyridin-3-yl)dihydropyrimidine-2,4(1H,3H)-dione] | 63 | 37 | 33 |
| O=C1CCN(c2cnn3ccc(CC4CCN(Cc5ccccc5Cl)CC4)cc23)C(=O)N1 [Example 59, 1-(5-((1-(2-chlorobenzyl)piperidin-4-yl)methyl)pyrazolo[1,5-a]pyridin-3-yl)dihydropyrimidine-2,4(1H,3H)-dione] | 58 | 42 | 98 |
| O=C1CCN(c2cnn3ccc(CC4CCN(Cc5nccs5)CC4)cc23)C(=O)N1 [Example 60, 1-(5-((1-(thiazol-2-ylmethyl)piperidin-4-yl)methyl)pyrazolo[1,5-a]pyridin-3-yl)dihydropyrimidine-2,4(1H,3H)-dione] | 61 | 39 | 34 |
